# Data: patent publication US6355799B1, “Substituted benzene compounds, process for their preparation, and herbicidal and defoliant compositions containing them” (ISK Americas Incorporated, priority 1997, dated 2002)
# What was measured:
# Assay type in all cases: in vivo
# [1] = system: upland rice (Oryza sp., var. Tebonnet, RICE); test: Pre-emerge test, crop safety; details: pre-emerge, rated 14 days after application, 0 = no damage, 100 = complete death
# How it was run: (§1)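 Herbicidal damage is scored 0 (none) to 100 (complete plant death) two weeks after a simulated field spray. Rates span 15–1000 g ai/ha, delivered in acetone at 187 l/ha. For post-emergence treatments, plants have 2–3 leaves and the spray carries 0.25% v/v non-ionic surfactant.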
# [2] = system: field corn (Zea mays L., var. Dekalb 535, CORN); test: Pre-emerge test, crop safety; details: pre-emerge, rated 14 days after application, 0 = no damage, 100 = complete death
# How it was run: as §1
# [3] = system: redroot pigweed (Amaranthus retroflexus, AMARE); test: Pre-emerge test, greenhouse herbicide activity screening; details: pre-emerge, rated 14 days after application, 0 = no damage, 100 = complete death
# How it was run: as §1
# [4] = system: common ragweed (Ambrosia artemisizfolia L., AMBEL); test: Post-emerge test, greenhouse herbicide activity screening; details: phytotoxicity rating 0-100 (0 no damage, 100 complete death), 14 days after application
# How it was run: (§2)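 Compounds in acetone were track-sprayed at 15-1000 g ai/ha (187 l/ha) on sandy loam pots: pre-emerge one day after seeding, post-emerge at 2-3 leaf stage with 0.25% v/v non-ionic surfactant. Phytotoxicity was rated 14 days later on a 0 (no damage) to 100 (complete death) scale.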
# [5] = system: ivyleaf morningglory (Ipomoea hederacea, IPOHE); test: as above; details: phytotoxicity rating 0-100 (0 no damage, 100 complete death), 14 days after application
# How it was run: as §2
# [6] = system: barnyardgrass (Echinochloa crus-galli, ECHCG); test: as above; details: phytotoxicity rating 0-100 (0 no damage, 100 complete death), 14 days after application
# How it was run: as §2
# [7] = system: green foxtail (Setaria viridis, SETVI); test: as above; details: phytotoxicity rating 0-100 (0 no damage, 100 complete death), 14 days after application
# How it was run: as §2
# [8] = system: large crabgrass (Digitaria sanguinalis, DIGSA); test: as above; details: phytotoxicity rating 0-100 (0 no damage, 100 complete death), 14 days after application
# How it was run: as §2
# [9] = system: redroot pigweed (Amaranthus retroflexus, AMARE); test: as above; details: phytotoxicity rating 0-100 (0 no damage, 100 complete death), 14 days after application
# How it was run: as §2
# [10] = system: johnsongrass (Sorghum halepense, SORHA); test: as above; details: phytotoxicity rating 0-100 (0 no damage, 100 complete death), 14 days after application
# How it was run: as §2
# [11] = system: velvetleaf (Abutilon theophrasti, ABUTH); test: as above; details: phytotoxicity rating 0-100 (0 no damage, 100 complete death), 14 days after application
# How it was run: as §2
# [12] = system: lambsquarters (Chenopodium album, CHEAL); test: as above; details: phytotoxicity rating 0-100 (0 no damage, 100 complete death), 14 days after application
# How it was run: as §2
# [13] = system: sicklepod (Cassia obtusifolia, CASOB); test: as above; details: phytotoxicity rating 0-100 (0 no damage, 100 complete death), 14 days after application
# How it was run: as §2
# [14] = system: upland rice (Oryza sp., var. Tebonnet, RICE); test: Post-emerge test, crop safety; details: phytotoxicity rating 0-100 (0 no damage, 100 complete death), 14 days after application
# How it was run: as §2
# [15] = system: field corn (Zea mays L., var. Dekalb 535, CORN); test: Post-emerge test, crop safety; details: phytotoxicity rating 0-100 (0 no damage, 100 complete death), 14 days after application
# How it was run: as §2
# [16] = system: ivyleaf morningglory (Ipomoea hederacea, IPOHE); test: Pre-emerge test, greenhouse herbicide activity screening; details: pre-emerge, rated 14 days after application, 0 = no damage, 100 = complete death
# How it was run: as §2
# [17] = system: barnyardgrass (Echinochloa crus-galli, ECHCG); test: as above; details: pre-emerge, rated 14 days after application, 0 = no damage, 100 = complete death
# How it was run: as §2
# [18] = system: green foxtail (Setaria viridis, SETVI); test: as above; details: pre-emerge, rated 14 days after application, 0 = no damage, 100 = complete death
# How it was run: as §2
# [19] = system: large crabgrass (Digitaria sanguinalis, DIGSA); test: as above; details: pre-emerge, rated 14 days after application, 0 = no damage, 100 = complete death
# How it was run: as §2
# [20] = system: johnsongrass (Sorghum halepense, SORHA); test: as above; details: pre-emerge, rated 14 days after application, 0 = no damage, 100 = complete death
# How it was run: as §2
# [21] = system: velvetleaf (Abutilon theophrasti, ABUTH); test: as above; details: pre-emerge, rated 14 days after application, 0 = no damage, 100 = complete death
# How it was run: as §2
# [22] = system: lambsquarters (Chenopodium album, CHEAL); test: as above; details: pre-emerge, rated 14 days after application, 0 = no damage, 100 = complete death
# How it was run: as §2
# [23] = system: sicklepod (Cassia obtusifolia, CASOB); test: as above; details: pre-emerge, rated 14 days after application, 0 = no damage, 100 = complete death
# How it was run: as §2
structure (smiles),measurement,setting,value
"COc1c(Cl)cc(F)c(-n2c(=O)cc(C(F)(F)F)n(C)c2=O)c1N=CN(C)C [Compound 1-31, 3-[4-chloro-2-(dimethylaminomethynyl)imino-6-fluoro-3-methoxyphenyl]-1-methyl-6-trifluoromethyl-2,4(1H, 3H)-pyrimidinedione]","Pre-emerge crop damage RICE (phytotoxicity rating, scale 0-100)",[1]; 63 g ai/ha,0
same,"Pre-emerge crop damage RICE (phytotoxicity rating, scale 0-100)",[1]; 250 g ai/ha,10
same,"Pre-emerge crop damage CORN (phytotoxicity rating, scale 0-100)",[2]; 63 g ai/ha,0
same,"Pre-emerge crop damage CORN (phytotoxicity rating, scale 0-100)",[2]; 250 g ai/ha,50
same,"Pre-emerge Herbicidal Activity AMARE (phytotoxicity rating, scale 0-100)",[3]; 63 g ai/ha,80
same,"Pre-emerge Herbicidal Activity AMARE (phytotoxicity rating, scale 0-100)",[3]; 250 g ai/ha,100
same,Post-emerge Herbicidal Activity AMBEL,[4]; 63 g ai/ha,0
same,Post-emerge Herbicidal Activity AMBEL,[4]; 250 g ai/ha,0
same,Post-emerge Herbicidal Activity IPOHE,[5]; 63 g ai/ha,10
same,Post-emerge Herbicidal Activity IPOHE,[5]; 250 g ai/ha,50
same,Post-emerge Herbicidal Activity ECHCG,[6]; 63 g ai/ha,0
same,Post-emerge Herbicidal Activity ECHCG,[6]; 250 g ai/ha,0
same,Post-emerge Herbicidal Activity SETVI,[7]; 63 g ai/ha,0
same,Post-emerge Herbicidal Activity SETVI,[7]; 250 g ai/ha,0
same,Post-emerge Herbicidal Activity DIGSA,[8]; 63 g ai/ha,0
same,Post-emerge Herbicidal Activity DIGSA,[8]; 250 g ai/ha,0
same,Post-emerge Herbicidal Activity AMARE,[9]; 63 g ai/ha,10
same,Post-emerge Herbicidal Activity AMARE,[9]; 250 g ai/ha,30
same,Post-emerge Herbicidal Activity SORHA,[10]; 63 g ai/ha,0
same,Post-emerge Herbicidal Activity SORHA,[10]; 250 g ai/ha,0
same,Post-emerge Herbicidal Activity ABUTH,[11]; 63 g ai/ha,20
same,Post-emerge Herbicidal Activity ABUTH,[11]; 250 g ai/ha,50
same,Post-emerge Herbicidal Activity CHEAL,[12]; 63 g ai/ha,0
same,Post-emerge Herbicidal Activity CHEAL,[12]; 250 g ai/ha,40
same,Post-emerge Herbicidal Activity CASOB,[13]; 63 g ai/ha,0
same,Post-emerge Herbicidal Activity CASOB,[13]; 250 g ai/ha,0
same,Post-emerge Herbicidal Activity RICE (crop damage),[14]; 63 g ai/ha,0
same,Post-emerge Herbicidal Activity RICE (crop damage),[14]; 250 g ai/ha,10
same,Post-emerge Herbicidal Activity CORN (crop damage),[15]; 63 g ai/ha,0
same,Post-emerge Herbicidal Activity CORN (crop damage),[15]; 250 g ai/ha,0
same,"Pre-emerge Herbicidal Activity IPOHE (phytotoxicity rating, scale 0-100)",[16]; 63 g ai/ha,0
same,"Pre-emerge Herbicidal Activity IPOHE (phytotoxicity rating, scale 0-100)",[16]; 250 g ai/ha,80
same,"Pre-emerge Herbicidal Activity ECHCG (phytotoxicity rating, scale 0-100)",[17]; 63 g ai/ha,0
same,"Pre-emerge Herbicidal Activity ECHCG (phytotoxicity rating, scale 0-100)",[17]; 250 g ai/ha,40
same,"Pre-emerge Herbicidal Activity SETVI (phytotoxicity rating, scale 0-100)",[18]; 63 g ai/ha,50
same,"Pre-emerge Herbicidal Activity SETVI (phytotoxicity rating, scale 0-100)",[18]; 250 g ai/ha,100
same,"Pre-emerge Herbicidal Activity DIGSA (phytotoxicity rating, scale 0-100)",[19]; 63 g ai/ha,0
same,"Pre-emerge Herbicidal Activity DIGSA (phytotoxicity rating, scale 0-100)",[19]; 250 g ai/ha,90
same,"Pre-emerge Herbicidal Activity SORHA (phytotoxicity rating, scale 0-100)",[20]; 63 g ai/ha,0
same,"Pre-emerge Herbicidal Activity SORHA (phytotoxicity rating, scale 0-100)",[20]; 250 g ai/ha,90
same,"Pre-emerge Herbicidal Activity ABUTH (phytotoxicity rating, scale 0-100)",[21]; 63 g ai/ha,100
same,"Pre-emerge Herbicidal Activity ABUTH (phytotoxicity rating, scale 0-100)",[21]; 250 g ai/ha,100
same,"Pre-emerge Herbicidal Activity CHEAL (phytotoxicity rating, scale 0-100)",[22]; 63 g ai/ha,95
same,"Pre-emerge Herbicidal Activity CHEAL (phytotoxicity rating, scale 0-100)",[22]; 250 g ai/ha,100
same,"Pre-emerge Herbicidal Activity CASOB (phytotoxicity rating, scale 0-100)",[23]; 63 g ai/ha,70
same,"Pre-emerge Herbicidal Activity CASOB (phytotoxicity rating, scale 0-100)",[23]; 250 g ai/ha,95
